Source: US9365576B2, “Pyrrolopyrrolidinone compounds” (Novartis AG, priority 2012, dated 2016)

The compounds below were run against human MDM2 protein (amino acids 2-188) (Homo sapiens (Human), UniProt Q00987) (assay: TR-FRET assay, p53-MDM2 Assay 2 (modified)). Conditions: TR-FRET; 0.1 nM MDM2, 0.1 nM Europium labeled streptavidin, Tecan genios Pro reader; read-out: IC50 p53-MDM2 Assay 2.
Type: binding
Procedure, shortened: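 IC50 values were curve-fitted from the time-resolved 665/620 nm emission ratio after 340 nm excitation. The assay combined 0.625 nM europium-streptavidin donor with 1.25 nM C-terminally biotinylated MDM2 2–188 (15 min, RT), followed by 15 min with 10 nM Cy5-labeled p53 18–26 acceptor peptide.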

Sequence of human MDM2 protein (amino acids 2-188) (Q00987 2-188): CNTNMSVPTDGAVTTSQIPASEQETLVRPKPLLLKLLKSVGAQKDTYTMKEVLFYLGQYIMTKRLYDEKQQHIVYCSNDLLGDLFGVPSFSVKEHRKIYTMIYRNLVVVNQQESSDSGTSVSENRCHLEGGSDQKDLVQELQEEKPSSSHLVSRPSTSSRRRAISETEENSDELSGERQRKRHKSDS

Compound	IC50
COc1nc(N(C)C)ncc1-c1cc2c(n1C(C)C)C(c1ccc(C#N)cc1)N(c1cc(C)nn1C)C2=O (stereo not drawn) [Example 180, 4-[2-(2-Dimethylamino-4-methoxy-pyrimidin-5-yl)-5-(2,5-dimethyl-2H-pyrazol-3-yl)-1-isopropyl-4-oxo-1,4,5,6-tetrahydro-pyrrolo[3,4-b]pyrrol-6-yl]-benzonitrile]	0.647 nM
COc1ncc(-c2cc3c(n2C(C)C)C(c2ccc(Cl)cc2)N(c2cn(C)nc2C)C3=O)c(OC)n1 (stereo not drawn) [Example 181, 6-(4-Chloro-phenyl)-2-(2,4-dimethoxy-pyrimidin-5-yl)-5-(1,3-dimethyl-1H-pyrazol-4-yl)-1-isopropyl-5,6-dihydro-1H-pyrrolo[3,4-b]pyrrol-4-one]	2.39 nM
COc1nc(N(C)C)ncc1-c1cc2c(n1C(C)C)C(c1ccc(Cl)cc1)N(c1cn(C)nc1C)C2=O (stereo not drawn) [Example 182, 6-(4-Chloro-phenyl)-2-(2-dimethylamino-4-methoxy-pyrimidin-5-yl)-5-(1,3-dimethyl-1H-pyrazol-4-yl)-1-isopropyl-5,6-dihydro-1H-pyrrolo[3,4-b]pyrrol-4-one]	0.659 nM
COc1ccc(S(C)(=O)=O)cc1-c1cc2c(n1C(C)C)C(c1ccc(Cl)cc1)N(c1cn(C)nc1C)C2=O (stereo not drawn) [Example 183, 6-(4-Chloro-phenyl)-5-(1,3-dimethyl-1H-pyrazol-4-yl)-1-isopropyl-2-(5-methanesulfonyl-2-methoxy-phenyl)-5,6-dihydro-1H-pyrrolo[3,4-b]pyrrol-4-one]	2.57 nM
COc1cn(C)c(=O)cc1-c1cc2c(n1C(C)C)C(c1ccc(Cl)cc1)N(c1cn(C)nc1C)C2=O (stereo not drawn) [Example 184, 6-(4-Chloro-phenyl)-5-(1,3-dimethyl-1H-pyrazol-4-yl)-1-isopropyl-2-(5-methoxy-1-methyl-2-oxo-1,2-dihydro-pyridin-4-yl)-5,6-dihydro-1H-pyrrolo[3,4-b]pyrrol-4-one]	5.6 nM
COc1nc(N(C)C)ncc1-c1cc2c(n1C(C)C)C(c1ccc(C#N)cc1)N(c1cc(Cl)c(=O)n(C)c1)C2=O (stereo not drawn) [Example 185, 4-[5-(5-Chloro-1-methyl-6-oxo-1,6-dihydro-pyridin-3-yl)-2-(2-dimethylamino-4-methoxy-pyrimidin-5-yl)-1-isopropyl-4-oxo-1,4,5,6-tetrahydro-pyrrolo[3,4-b]pyrrol-6-yl]-benzonitrile]	0.225 nM
COc1ncc(-c2cc3c(n2C(C)C)[C@H](c2ccc(C#N)cc2)N(c2cc(Cl)c(=O)n(C)c2)C3=O)c(OC)n1 [Example 186, 4-[(S)-5-(5-Chloro-1-methyl-6-oxo-1,6-dihydro-pyridin-3-yl)-2-(2,4-dimethoxy-pyrimidin-5-yl)-1-isopropyl-4-oxo-1,4,5,6-tetrahydro-pyrrolo[3,4-b]pyrrol-6-yl]-benzonitrile]	0.108 nM
COc1ncc(-c2cc3c(n2C(C)C)[C@@H](c2ccc(C#N)cc2)N(c2cc(Cl)c(=O)n(C)c2)C3=O)c(OC)n1 [Example 187, 4-[(R)-5-(5-Chloro-1-methyl-6-oxo-1,6-dihydro-pyridin-3-yl)-2-(2,4-dimethoxy-pyrimidin-5-yl)-1-isopropyl-4-oxo-1,4,5,6-tetrahydro-pyrrolo[3,4-b]pyrrol-6-yl]-benzonitrile]	144 nM
COc1nc(N(C)C)ncc1-c1cc2c(n1C(C)C)[C@H](c1ccc(Cl)cc1)N(c1c[nH]c(=O)c(Cl)c1)C2=O [Example 188, (S)-5-(5-Chloro-6-oxo-1,6-dihydro-pyridin-3-yl)-6-(4-chloro-phenyl)-2-(2-dimethylamino-4-methoxy-pyrimidin-5-yl)-1-isopropyl-5,6-dihydro-1H-pyrrolo[3,4-b]pyrrol-4-one]	0.079 nM
COc1nc(N(C)C)ncc1-c1cc2c(n1C(C)C)[C@@H](c1ccc(Cl)cc1)N(c1c[nH]c(=O)c(Cl)c1)C2=O [Example 189, (R)-5-(5-Chloro-6-oxo-1,6-dihydro-pyridin-3-yl)-6-(4-chloro-phenyl)-2-(2-dimethylamino-4-methoxy-pyrimidin-5-yl)-1-isopropyl-5,6-dihydro-1H-pyrrolo[3,4-b]pyrrol-4-one]	10.6 nM
COc1nc(N(C)C)ncc1-c1cc2c(n1C(C)C)[C@H](c1ccc(C#N)cc1)N(C1CCOCC1)C2=O [Example 190, 4-[(S)-2-(2-Dimethylamino-4-methoxy-pyrimidin-5-yl)-1-isopropyl-4-oxo-5-(tetrahydro-pyran-4-yl)-1,4,5,6-tetrahydro-pyrrolo[3,4-b]pyrrol-6-yl]-benzonitrile]	0.631 nM
COc1nc(N(C)C)ncc1-c1cc2c(n1C(C)C)[C@@H](c1ccc(C#N)cc1)N(C1CCOCC1)C2=O [Example 191, 4-[(R)-2-(2-Dimethylamino-4-methoxy-pyrimidin-5-yl)-1-isopropyl-4-oxo-5-(tetrahydro-pyran-4-yl)-1,4,5,6-tetrahydro-pyrrolo[3,4-b]pyrrol-6-yl]-benzonitrile]	280 nM
COc1ncc(-c2cc3c(n2C(C)C)C(c2ccc(Cl)c(F)c2)N(c2cc(Cl)c(=O)n(C)c2)C3=O)c(OC)n1 (stereo not drawn) [Example 192, 6-(4-Chloro-3-fluoro-phenyl)-5-(5-chloro-1-methyl-6-oxo-1,6-dihydro-pyridin-3-yl)-2-(2,4-dimethoxy-pyrimidin-5-yl)-1-isopropyl-5,6-dihydro-1H-pyrrolo[3,4-b]pyrrol-4-one]	0.128 nM
COc1nc(N(C)C)ncc1-c1cc2c(n1C(C)C)C(c1ccc(Cl)c(F)c1)N(c1cc(Cl)c(=O)n(C)c1)C2=O (stereo not drawn) [Example 193, 6-(4-Chloro-3-fluoro-phenyl)-5-(5-chloro-1-methyl-6-oxo-1,6-dihydro-pyridin-3-yl)-2-(2-dimethylamino-4-methoxy-pyrimidin-5-yl)-1-isopropyl-5,6-dihydro-1H-pyrrolo[3,4-b]pyrrol-4-one]	0.139 nM
COc1nc(N(C)C)ncc1-c1cc2c(n1C(C)C)C(c1ccc(C#N)c(F)c1)N(c1cc(Cl)c(=O)n(C)c1)C2=O (stereo not drawn) [Example 194, 4-[5-(5-Chloro-1-methyl-6-oxo-1,6-dihydro-pyridin-3-yl)-2-(2-dimethylamino-4-methoxy-pyrimidin-5-yl)-1-isopropyl-4-oxo-1,4,5,6-tetrahydro-pyrrolo[3,4-b]pyrrol-6-yl]-2-fluoro-benzonitrile]	0.194 nM
COc1ncc(-c2cc3c(n2C(C)C)C(c2ccc(C#N)c(F)c2)N(c2cc(Cl)c(=O)n(C)c2)C3=O)c(OC)n1 (stereo not drawn) [Example 195, 4-[5-(5-Chloro-1-methyl-6-oxo-1,6-dihydro-pyridin-3-yl)-2-(2,4-dimethoxy-pyrimidin-5-yl)-1-isopropyl-4-oxo-1,4,5,6-tetrahydro-pyrrolo[3,4-b]pyrrol-6-yl]-2-fluoro-benzonitrile]	0.252 nM
COc1ncc(-c2cc3c(n2C(C)C)C(c2ccc(Cl)c(F)c2)N(c2cc(Cl)cn(C)c2=O)C3=O)c(OC)n1 (stereo not drawn) [Example 196, 6-(4-Chloro-3-fluoro-phenyl)-5-(5-chloro-1-methyl-2-oxo-1,2-dihydro-pyridin-3-yl)-2-(2,4-dimethoxy-pyrimidin-5-yl)-1-isopropyl-5,6-dihydro-1H-pyrrolo[3,4-b]pyrrol-4-one]	0.395 nM
COc1nc(N(C)C)ncc1-c1cc2c(n1C(C)C)C(c1ccc(Cl)c(F)c1)N(c1cc(Cl)cn(C)c1=O)C2=O (stereo not drawn) [Example 197, 6-(4-Chloro-3-fluoro-phenyl)-5-(5-chloro-1-methyl-2-oxo-1,2-dihydro-pyridin-3-yl)-2-(2-dimethylamino-4-methoxy-pyrimidin-5-yl)-1-isopropyl-5,6-dihydro-1H-pyrrolo[3,4-b]pyrrol-4-one]	0.356 nM
COc1ncc(-c2cc3c(n2C(C)C)C(c2ccc(C#N)c(F)c2)N(c2cc(Cl)cn(C)c2=O)C3=O)c(OC)n1 (stereo not drawn) [Example 198, 4-[5-(5-Chloro-1-methyl-2-oxo-1,2-dihydro-pyridin-3-yl)-2-(2,4-dimethoxy-pyrimidin-5-yl)-1-isopropyl-4-oxo-1,4,5,6-tetrahydro-pyrrolo[3,4-b]pyrrol-6-yl]-2-fluoro-benzonitrile]	0.691 nM
COc1nc(N(C)C)ncc1-c1cc2c(n1C(C)C)C(c1ccc(C#N)c(F)c1)N(c1cc(Cl)cn(C)c1=O)C2=O (stereo not drawn) [Example 199, 4-[5-(5-Chloro-1-methyl-2-oxo-1,2-dihydro-pyridin-3-yl)-2-(2-dimethylamino-4-methoxy-pyrimidin-5-yl)-1-isopropyl-4-oxo-1,4,5,6-tetrahydro-pyrrolo[3,4-b]pyrrol-6-yl]-2-fluoro-benzonitrile]	0.257 nM
COc1ncc(-c2cc3c(n2C(C)C)C(c2ccc(C#N)c(F)c2)N(c2cc(Cl)c[nH]c2=O)C3=O)c(OC)n1 (stereo not drawn) [Example 200, 4-[5-(5-Chloro-2-oxo-1,2-dihydro-pyridin-3-yl)-2-(2,4-dimethoxy-pyrimidin-5-yl)-1-isopropyl-4-oxo-1,4,5,6-tetrahydro-pyrrolo[3,4-b]pyrrol-6-yl]-2-fluoro-benzonitrile]	0.37 nM
COc1nc(N(C)C)ncc1-c1cc2c(n1C(C)C)C(c1ccc(C#N)c(F)c1)N(c1cc(Cl)c[nH]c1=O)C2=O (stereo not drawn) [Example 201, 4-[5-(5-Chloro-2-oxo-1,2-dihydro-pyridin-3-yl)-2-(2-dimethylamino-4-methoxy-pyrimidin-5-yl)-1-isopropyl-4-oxo-1,4,5,6-tetrahydro-pyrrolo[3,4-b]pyrrol-6-yl]-2-fluoro-benzonitrile]	0.25 nM
COc1ncc(-c2cc3c(n2C(C)C)C(c2ccc(Cl)c(F)c2)N(c2cc(Cl)c[nH]c2=O)C3=O)c(OC)n1 (stereo not drawn) [Example 202, 6-(4-Chloro-3-fluoro-phenyl)-5-(5-chloro-2-oxo-1,2-dihydro-pyridin-3-yl)-2-(2,4-dimethoxy-pyrimidin-5-yl)-1-isopropyl-5,6-dihydro-1H-pyrrolo[3,4-b]pyrrol-4-one]	0.201 nM
COc1nc(N(C)C)ncc1-c1cc2c(n1C(C)C)C(c1ccc(Cl)c(F)c1)N(c1cc(Cl)c[nH]c1=O)C2=O (stereo not drawn) [Example 203, 6-(4-Chloro-3-fluoro-phenyl)-5-(5-chloro-2-oxo-1,2-dihydro-pyridin-3-yl)-2-(2-dimethylamino-4-methoxy-pyrimidin-5-yl)-1-isopropyl-5,6-dihydro-1H-pyrrolo[3,4-b]pyrrol-4-one]	0.119 nM
